Experimental data from patent US7803801B2, “Aminopyridine compounds having Syk inhibitory activity” (Japan Tobacco, Inc., priority 2005, dated 2010).
pIC50: −log10 of the molar value.

Key:
[1] = target: GST-Syk Full Protein (human) (Homo sapiens, UniProt P43405); test: Syk kinase inhibition test (HTRF method); type: biochemical; details: HTRF, 100 μM ATP, 30 min room temperature, average; read-out: sykHTRF ave IC50
How it was run: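 HTRF read-out: after EDTA termination and 1 h with XL665-streptavidin and Eu-anti-phosphotyrosine, the 665/620 nm ratio was measured. The reaction ran 30 min at 20–25 °C with final 6.4 nM human GST-Syk, 250 nM biotinylated peptide, 100 μM ATP, pH 7.0 HEPES buffer, 2% DMSO.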

[2] = test system: cultured human mast cells; test: Degranulation inhibition test using cultured human mast cells (IgE cross-linking, β-Hexosaminidase release); type: cell-based; details: Mast cell; cultured human mast cells, anti-hIgE stimulation, β-Hexosaminidase index, average; read-out: human degranulation ave. IC50
How it was run: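 Degranulation was triggered by anti-hIgE (10 μg/mL final, 30 min, 37 °C) after a 10-min compound pretreatment (DMSO 0.1%) of cord-blood CD34+-derived mast cells primed 5 days with IL-4 and IgE. β-Hexosaminidase in supernatant was measured with p-nitrophenyl-GlcNAc substrate (A405), expressed against water-lysed total; IC50 (M).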

Row | SMILES | pIC50 [1] | pIC50 [2]
1 | Cc1ccnc(Nc2cccc(-c3cnc(CN4CCC(O)CC4)s3)n2)c1 [Compound A-152, 1-{5-[6-(4-methylpyridin-2-ylamino)pyridin-2-yl]thiazol-2-ylmethyl}piperidin-4-ol] | > 7.00 | 6.00 to 7.00
2 | COC(=O)C(C)(C)NC(=O)c1ncc(-c2cccc(Nc3cc(C)ccn3)n2)s1 [Compound A-153] | 6.00 to 7.00 | < 6.00
3 | Cc1ccnc(Nc2cccc(-c3cnc(C(=O)NC(C)(C)C(=O)O)s3)n2)c1 [Compound A-154] | 6.00 to 7.00 | < 6.00
4 | CCOC(=O)CC(C)(C)NC(=O)c1ncc(-c2cccc(Nc3cc(C)ccn3)n2)s1 [Compound A-155] | 6.00 to 7.00 | < 6.00
5 | Cc1ccnc(Nc2cccc(-c3cnc(CC(C)(C)CC(=O)O)s3)n2)c1 [Compound A-157] | 6.00 to 7.00 | < 6.00
6 | Cc1ccnc(Nc2cccc(-c3cnc(CC(C)(C)CCO)s3)n2)c1 [Compound A-158, 3,3-dimethyl-4-{5-[6-(4-methylpyridin-2-ylamino)pyridin-2-yl]thiazol-2-yl}butan-1-ol] | > 7.00 | 6.00 to 7.00
7 | Cc1ccnc(Nc2cccc(-c3cnc(CCc4ccc(CO)cc4)s3)n2)c1 [Compound A-159, [4-(2-{5-[6-(4-methylpyridin-2-ylamino)pyridin-2-yl]thiazol-2-yl}ethyl)phenyl]methanol] | > 7.00 | 6.00 to 7.00
8 | CC(=O)N[C@H](c1ccc(OCc2ccccc2)cc1)c1ncc(-c2cccc(Nc3cc(C)ccn3)n2)s1 [Compound A-160] | 6.00 to 7.00 | < 6.00
9 | CC(=O)N[C@H](c1ccc(O)cc1)c1ncc(-c2cccc(Nc3cc(C)ccn3)n2)s1 [Compound A-161, N—((R)-(4-hydroxyphenyl)-{5-[6-(4-methylpyridin-2-ylamino)pyridin-2-yl]thiazol-2-yl}methyl)acetamide] | > 7.00 | 6.00 to 7.00
10 | Cc1ccnc(Nc2cccc(-c3cnc(CCc4ccc(C(=O)NCCO)cc4)s3)n2)c1 [Compound A-162, N-(2-hydroxyethyl)-4-(2-{5-[6-(4-methylpyridin-2-ylamino)pyridin-2-yl]thiazol-2-yl}ethyl)benzamide] | > 7.00 | 6.00 to 7.00
11 | COC(=O)CCNCc1ncc(-c2cccc(Nc3cc(C)ccn3)n2)s1 [Compound A-163] | 6.00 to 7.00 | < 6.00
12 | COC(=O)CCN(Cc1ncc(-c2cccc(Nc3cc(C)ccn3)n2)s1)C(C)=O [Compound A-164] | 6.00 to 7.00 | < 6.00
13 | Cc1ccnc(Nc2cccc(-c3cnc(CNCCC(=O)O)s3)n2)c1 [Compound A-165] | 6.00 to 7.00 | < 6.00
14 | CC(=O)N[C@@H](C)c1ncc(-c2cccc(Nc3cc(OCCN(C)C)ccn3)n2)s1 [Compound A-166] | < 6.00 | < 6.00
15 | CCOC(=O)C1CCN(Cc2ncc(-c3cccc(Nc4cc(C)ccn4)n3)s2)CC1 [Compound A-167] | 6.00 to 7.00 | < 6.00
16 | Cc1ccnc(Nc2cccc(-c3cnc(CN4CCC(C(=O)O)CC4)s3)n2)c1 [Compound A-168] | 6.00 to 7.00 | < 6.00
17 | Cc1ccnc(Nc2cccc(-c3cnc(CNC(=O)CC(=O)O)s3)n2)c1 [Compound A-169] | 6.00 to 7.00 | < 6.00
18 | COC(=O)N1CCC(c2ncc(-c3cccc(Nc4cc(C)ccn4)n3)s2)CC1 [Compound A-170] | 6.00 to 7.00 | 6.00 to 7.00
19 | Cc1ccnc(Nc2cccc(-c3cnc(CCCCC(=O)NS(C)(=O)=O)s3)n2)c1 [Compound A-171] | 6.00 to 7.00 | < 6.00
20 | Cc1ccnc(Nc2cccc(-c3cnc(CCC4CCC(=O)CC4)s3)n2)c1 [Compound A-172, 4-(2-{5-[6-(4-methylpyridin-2-ylamino)pyridin-2-yl]thiazol-2-yl}ethyl)cyclohexanone] | > 7.00 | 6.00 to 7.00
21 | Cc1ccnc(Nc2cccc(-c3cnc(CCC4CCC(O)CC4)s3)n2)c1 (stereo not shown) [Compound A-173, 4-(2-{5-[6-(4-methylpyridin-2-ylamino)pyridin-2-yl]thiazol-2-yl}ethyl)cyclohexanol] | > 7.00 | 6.00 to 7.00
22 | Cc1ccnc(Nc2cccc(-c3cnc([C@H]4CC[C@H](C(=O)N5C[C@@H](O)[C@@H](O)C5)CC4)s3)n2)c1 [Compound A-174, ((3R,4S)-3,4-dihydroxypyrrolidin-1-yl)-(trans-4-{5-[6-(4-methylpyridin-2-ylamino)pyridin-2-yl]thiazol-2-yl}cyclohexyl)methanone] | > 7.00 | 6.00 to 7.00
23 | Cc1ccnc(Nc2cccc(-c3cnc([C@H]4CC[C@H](C(=O)NC(C)(C)CO)CC4)s3)n2)c1 [Compound A-175] | 6.00 to 7.00 | 6.00 to 7.00
